Measurements from article PMC6332312, “N-Monosubstituted Methoxy-oligo(ethylene glycol) Carbamate Ester Prodrugs of Resveratrol” (Molecules, 2015).

Key:
[1] = Hydrolysis in PBS 0.1 M at pH 6.8 (intestinal pH), 37 °C; format: physicochemical; conditions: pH 6.8, 37 °C; for half-life at 5 µM: 0.1 M PBS buffer, 5 µM compound; for kII (hydrolysis rate constant, di- to monosubstituted) / kIII (hydrolysis rate constant, tri- to disubstituted): pseudo-first order fit
Method: (§1) Kinetic analysis of the data was performed by assuming that hydrolysis to resveratrol occurred via consecutive losses of the three protecting groups in pseudo-first order processes and by considering each pair of isomeric intermediates (potentially) resulting from the first and second hydrolysis steps as a single species, i.e. the two monosubstituted and the two disubstituted intermediates were handled as species I and II, respectively (Scheme 3).
As hydrolysis proceeds resveratrol will eventually form with the kinetics dictated by the constants, up to 100% conversion. The fit of the experimental data was obtained using a set of equations analogous to those utilized by Kozerski et al. and in our previous work.
The chemical stability of all new compounds was tested in aqueous media imitating gastric (0.1 N HCl, NormaFix) and intestinal (0.1 M PBS buffer, at pH 6.8) pH conditions. A 5 µM solution of the compound was prepared from a 5 mM stock solution in DMSO, and incubated at 37 °C for 24 h; samples withdrawn at different times were analyzed by HPLC-UV. Hydrolysis products were identified by HPLC/ESI-MS analysis of selected samples. Non-linear curve fitting was performed using Origin 8.0 data analysis software, using the equations described in [61, 62].

[2] = Stability (hydrolysis) in rodent whole blood, 37 °C; format: in vitro ADME; conditions: rat blood; for kIII (hydrolysis rate constant, tri- to disubstituted): pseudo-first order fit; for half-life at 5 µM: whole blood, 5 µM compound
Method: as §1
Rats were anesthetized and blood was withdrawn from the jugular vein, heparinised and transferred into tubes containing EDTA. Blood samples (1 mL) were spiked with 5 µM compound (dilution from a 5 mM stock solution in DMSO), and incubated at 37 °C for 4 h (the maximum period allowed by blood stability). Aliquots were taken after 10 min, 30 min, 1 h, 2 h and 4 h and treated as described below (blood sample treatment and analysis). Cleared blood samples were finally subjected to HPLC-UV analysis.
(§2) Before starting the treatment, 4,4′-dihydroxybiphenyl was added as internal standard to a carefully-measured blood volume (25 µM final concentration). Blood was then stabilized with a freshly-prepared 10 mM solution of ascorbic acid (0.1 vol) and acidified with 0.6 M acetic acid (0.1 vol); after mixing, an excess of acetone (4 vol) was added, followed by sonication (2 min) and centrifugation (12,000× g, 7 min, 4 °C). The supernatant was finally collected and stored at −20 °C. Before analysis, acetone was allowed to evaporate at room temperature using a Univapo 150H (UniEquip, Martinsried, Germany) vacuum concentrator centrifuge, and up to 40 μL of CH3CN were added to precipitate residual proteins. After centrifugation (12,000× g, 5 min, 4 °C), cleared samples were directly subjected to HPLC-UV analysis. Metabolites and hydrolysis products were identified by comparison of chromatographic retention time with true samples.

[3] = Pharmacokinetic study after single intragastric bolus to rats; format: in vivo, male Wistar rats; conditions: rat, single intragastric bolus 88 µmol/kg; for Tmax: male, Wistar, whole blood, po, 88 umol/kg, read-out: time of peak blood level after administration (converted); for peak blood concentration of prodrug (absorption): N = 3
Method: All the N-monosubstituted methoxy-oligo(ethylene glycol) carbamate ester prodrugs were tested for their in vivo absorption and metabolism. Pharmacokinetic studies were performed with rats, and each compound was administered as a single intragastric bolus, in an equimolar dose/kg body weight (88 µmol/kg). Blood samples were taken at different time points, treated as described in the Materials and Methods section and analyzed.
as §2
Derivatives 2–4 were administered to overnight-fasted male Wistar rats from the facility of the Department of Biomedical Sciences, University of Padova, as a single intragastric dose (88 µmol/kg, dissolved in 250 µL DMSO) delivered with a commercial stainless steel feeding tube (www.2biol.com) to have a precise starting time. Wistar rats are commonly used for such studies (e.g., [60]). Relatively young adults (3–5 months) were used in order to have a fully developed metabolism as well as a body weight (300–400 g) which would limit the amount of synthetic compound to be used.
Blood samples were obtained by the tail bleeding technique: before drug administration, rats were anesthetized with isoflurane and the tip of the tail was cut off; blood samples (80–100 µL each) were then taken from the tail tip at different time points after drug administration. Blood was collected in heparinized tubes, kept in ice and treated as described above within 10 min. All experiments involving animals were performed with the permission and supervision of the University of Padova Ethical Committee for Experimentation on Animals (CEASA) and Central Veterinary Service, in compliance with Italian Law DL 116/92, embodying EU Directive 86/609. Significance in comparisons was assessed using the Wilcoxon Rank Test.

Compound | half-life at 5 µM [1] [min] | kII (hydrolysis rate constant, di- to monosubstituted) [1] [h⁻¹] | kIII (hydrolysis rate constant, tri- to disubstituted) [1] [h⁻¹] | kIII (hydrolysis rate constant, tri- to disubstituted) [2] [h⁻¹] | half-life at 5 µM [2] [min] | Tmax [3] [min] | appearance of resveratrol, derivatives or metabolites (stilbene derivatives) in blood samples [3] | peak blood concentration of prodrug (absorption) [3] [µM]
COCCOCCOCCOCCOCCOCCNC(=O)Oc1ccc(/C=C/c2cc(OC(=O)NCCOCCOCCOCCOCCOCCOC)cc(OC(=O)NCCOCCOCCOCCOCCOCCOC)c2)cc1 [Compound 4, (E)-5-(4-(2,5,8,11,14,17-Hexaoxanonadecan-19-ylcarbamate)styryl)-1,3-phenylene bis(2,5,8,11,14,17-hexaoxanonadecan-19-ylcarbamate)] | 270 | 0.051 ± 0.001 | 0.158 ± 0.002 | 1.25 ± 0.08 | 30 | 10 | measurable levels | 0.1
COCCOCCOCCNC(=O)Oc1ccc(/C=C/c2cc(OC(=O)NCCOCCOCCOC)cc(OC(=O)NCCOCCOCCOC)c2)cc1 [Compound 2, (E)-5-(4-(2-(2-(2-Methoxyethoxy)ethoxy)ethyl)carbamate)-1,3-phenylene bis((2-(2-(2-methoxyethoxy)ethoxy)ethyl)carbamate)] | 360 | 0.030 ± 0.002 | 0.104 ± 0.002 | 1.47 ± 0.08 | 30 | – | did not result in the appearance of detectable amounts | –
COCCOCCOCCOCCNC(=O)Oc1ccc(/C=C/c2cc(OC(=O)NCCOCCOCCOCCOC)cc(OC(=O)NCCOCCOCCOCCOC)c2)cc1 [Compound 3, (E)-5-(4-(5,8,11-Tetraoxatridecan-13-ylcarbamate)styryl)-1,3-phenylene bis(2,5,8,11-tetraoxatridecan-13-ylcarbamate)] | 210 | 0.042 ± 0.005 | 0.134 ± 0.007 | 2.0 ± 0.2 | 18 | 10 | measurable levels | 0.3
